Reference: patent US20070048252A1, “Conjugates of the hydrophilic polymer and the molecules from boxwood extraction, and pharmaceutical compositions of the conjugates” (Beijingn Jenkem Technology CO., Ltd., priority 2003, published 2007)
“Also recorded” adds a separate entry of the source.

Legend:
Kunming strain mice = assay: Acute toxicity study, single IV or IP injection, 14 days observation; format: in vivo
Procedure: (§1) The conjugate obtained from example 8 was used as the testing reagent in the following study, while native Cyclovirobuxine D was used as positive control. Both samples were dissolved in sodium acetate (pH 5.7) before injection.
Kunming strain mice, 50% male and 50% formale, weighing 19-21 g, were randomly divided into 5 groups in the study. (1) native Cyclovirobuxine D, (2) the conjugate of PEG and Cyclovirobuxine D. The mice were fasted 12 hours before the injections. Each mice was given a single injection, and the volume for both IV and IP injection was based on 0.3 ml/10 g formulation. […] After 14 days, the mice still alive were executed and then analyzed.

[1] = tested on: pituitrin-induced myocardial ischemic injury; assay: Effect on pituitrin-induced myocardial ischemic injury (routine leads ECG: T wave, cardioverter); format: in vivo, SD rats; conditions: for effect on the cardioverter, in words: comparison with the controls groups, P>0.05; for inhibition of the rising of T wave by pituitrin-induced, in words: in 15 sec
Procedure: as §1
Methods: 50 normal SD rats of each sex, weighting 180-220 g, were randomly divided into five groups: controls, low dose of native Cyclovirobuxine D (0.25 mg/kg); middle dose of native Cyclovirobuxine D (0.5 mg/kg); low dose of the conjugate of Cyclovirobuxine D (0.25 mg/kg); middle dose of the conjugate of Cyclovirobuxine D (0.5 mg/kg). All rats were fasted before experiment for 12 hours, 1 g/kg urethane was administered by abdominal injection for anesthesia of the rats, and were placed in dorsal recumbency. A needle electrode was inserted into extremity subsurface carefully, examination leads ECG, holding 30 min, records the routine leads ECG The drug was given via vein of […] tail for each groups, after 10 min, 1.5 u/kg pituitrin was injected into dorsal veins of tongue, limited in 10 sec, records the routine leads ECG in 15 s, 30 s, 1, 2, 3, 5, 7, 10, 15 min after injected.

[2] = low dose 0.25 mg/kg iv, 1′ after pituitrin
[3] = low dose 0.25 mg/kg iv, 2′ after pituitrin
[4] = low dose 0.25 mg/kg iv, 3′ after pituitrin
[5] = low dose 0.25 mg/kg iv, 5′ after pituitrin
[6] = low dose 0.25 mg/kg iv, 7′ after pituitrin
[7] = low dose 0.25 mg/kg iv, 10′ after pituitrin
[8] = low dose 0.25 mg/kg iv, 15′ after pituitrin
[9] = low dose 0.25 mg/kg iv, 15″ after pituitrin 1.5 u/kg
[10] = low dose 0.25 mg/kg iv, 30″ after pituitrin
[11] = middle dose 0.5 mg/kg iv, 1′ after pituitrin
[12] = middle dose 0.5 mg/kg iv, 2′ after pituitrin
[13] = middle dose 0.5 mg/kg iv, 3′ after pituitrin
[14] = middle dose 0.5 mg/kg iv, 5′ after pituitrin
[15] = middle dose 0.5 mg/kg iv, 7′ after pituitrin
[16] = middle dose 0.5 mg/kg iv, 10′ after pituitrin
[17] = middle dose 0.5 mg/kg iv, 15′ after pituitrin
[18] = middle dose 0.5 mg/kg iv, 15″ after pituitrin 1.5 u/kg
[19] = middle dose 0.5 mg/kg iv, 30″ after pituitrin
[20] = middle dose 0.5 mg/kg iv, time 0

With “α-methoxy-polyethylene-glycol-ω-glu-glu-gly-Cyclovirobuxine D ester [Example 8]” the “toxicity compared with native Cyclovirobuxine D, in words” value (Kunming strain mice; iv and ip administration, from LD50) was “lower toxicity”, the “effect on the cardioverter, in words” value ([1]; listed as the conjugate of Cyclovirobuxine D) was “no significantly effect; also recorded: no significant effect” and the “cardioverter (X ± S)” value [1, 2] was 150 ± 96.44. For the same molecule, the “rising of T wave (X ± S)” value [1, 2] was 0.25 ± 0.062, the “cardioverter (X ± S)” value [1, 3] was 180 ± 60.00 and the “rising of T wave (X ± S)” value [1, 3] was 0.22 ± 0.102. For the same molecule, the “cardioverter (X ± S)” value [1, 4] was 200 ± 56.57, the “rising of T wave (X ± S)” value [1, 4] was 0.28 ± 0.071 and the “cardioverter (X ± S)” value [1, 5] was 240 ± 69.28. For the same molecule, the “rising of T wave (X ± S)” value [1, 5] was 0.33 ± 0.056, the “cardioverter (X ± S)” value [1, 6] was 260 ± 44.72 and the “rising of T wave (X ± S)” value [1, 6] was 0.35 ± 0.067. The “cardioverter (X ± S)” value [1, 7] was 260 ± 44.72, the “rising of T wave (X ± S)” value [1, 7] was 0.32 ± 0.052 and the “cardioverter (X ± S)” value [1, 8] was 300 ± 91.65. The “rising of T wave (X ± S)” value [1, 8] was 0.33 ± 0.069, the “cardioverter (X ± S)” value [1, 9] was 270 ± 145.94 and the “rising of T wave (X ± S)” value [1, 9] was 0.24 ± 0.059. For the same molecule, the “cardioverter (X ± S)” value [1, 10] was 200 ± 128.06, the “rising of T wave (X ± S)” value [1, 10] was 0.17 ± 0.123 and the “cardioverter (X ± S)” value ([1]; low dose 0.25 mg/kg iv, time 0) was 420 ± 60.00. For the same molecule, the “rising of T wave (X ± S)” value ([1]; low dose 0.25 mg/kg iv, time 0) was 0.25 ± 0.064, the “inhibition of the rising of T wave by pituitrin-induced, in words” value ([1]; low dose groups, 0.25 mg/kg, vs control groups P<0.01) was “could inhibit” and the “cardioverter (X ± S)” value [1, 11] was 180 ± 60.00. The “rising of T wave (X ± S)” value [1, 11] was 0.28 ± 0.049, the “cardioverter (X ± S)” value [1, 12] was 200 ± 56.57 and the “rising of T wave (X ± S)” value [1, 12] was 0.27 ± 0.029. The “cardioverter (X ± S)” value [1, 13] was 240 ± 0.00, the “rising of T wave (X ± S)” value [1, 13] was 0.28 ± 0.029 and the “cardioverter (X ± S)” value [1, 14] was 260 ± 44.72. The “rising of T wave (X ± S)” value [1, 14] was 0.31 ± 0.059, the “cardioverter (X ± S)” value [1, 15] was 280 ± 56.57 and the “rising of T wave (X ± S)” value [1, 15] was 0.31 ± 0.059. The “cardioverter (X ± S)” value [1, 16] was 280 ± 56.57, the “rising of T wave (X ± S)” value [1, 16] was 0.30 ± 0.065 and the “cardioverter (X ± S)” value [1, 17] was 280 ± 56.57. For the same molecule, the “rising of T wave (X ± S)” value [1, 17] was 0.33 ± 0.072, the “cardioverter (X ± S)” value [1, 18] was 340 ± 44.72 and the “rising of T wave (X ± S)” value [1, 18] was 0.33 ± 0.123. For the same molecule, the “cardioverter (X ± S)” value [1, 19] was 260 ± 107.70, the “rising of T wave (X ± S)” value [1, 19] was 0.22 ± 0.107 and the “cardioverter (X ± S)” value [1, 20] was 420 ± 60.00. For the same molecule, the “rising of T wave (X ± S)” value [1, 20] was 0.23 ± 0.046.

For `CN[C@@H](C)[C@H]1[C@H](O)C[C@@]2(C)[C@@H]3CC[C@H]4C(C)(C)[C@@H](NC)CC[C@@]45C[C@@]35CC[C@]12C` [native Cyclovirobuxine D, Cyclovirobuxine D], the “LD50 in IP injection” value (Kunming strain mice; Kunming mice, single IP injection, 14 days observation) was 97.52 mg/kg, the “LD50 in IV injection” value (Kunming strain mice; Kunming mice, single IV injection, 14 days observation) was 11.77 mg/kg and the “effect on the cardioverter, in words” value [1] was “no significantly effect”. For the same molecule, the “effect on the cardioverter, in words” value ([1]; listed as Native Cyclovirobuxine D) was “no significant effect”, the “cardioverter (X ± S)” value [1, 2] was 228.3 ± 44.41 and the “rising of T wave (X ± S)” value [1, 2] was 0.22 ± 0.08. The “cardioverter (X ± S)” value [1, 3] was 250.3 ± 29.14, the “rising of T wave (X ± S)” value [1, 3] was 0.18 ± 0.065 and the “cardioverter (X ± S)” value [1, 4] was 267.6 ± 44.71. The “rising of T wave (X ± S)” value [1, 4] was 0.21 ± 0.072, the “cardioverter (X ± S)” value [1, 5] was 266.4 ± 30.09 and the “rising of T wave (X ± S)” value [1, 5] was 0.22 ± 0.081. For the same molecule, the “cardioverter (X ± S)” value [1, 6] was 270.6 ± 30.52, the “rising of T wave (X ± S)” value [1, 6] was 0.21 ± 0.076 and the “cardioverter (X ± S)” value [1, 7] was 289.8 ± 43.91. The “rising of T wave (X ± S)” value [1, 7] was 0.23 ± 0.075, the “cardioverter (X ± S)” value [1, 8] was 315.0 ± 63.39 and the “rising of T wave (X ± S)” value [1, 8] was 0.24 ± 0.081. For the same molecule, the “cardioverter (X ± S)” value [1, 9] was 351.6 ± 90.78, the “rising of T wave (X ± S)” value [1, 9] was 0.50 ± 0.092 and the “cardioverter (X ± S)” value [1, 10] was 202.9 ± 42.85. For the same molecule, the “rising of T wave (X ± S)” value [1, 10] was 0.23 ± 0.061, the “cardioverter (X ± S)” value ([1]; low dose 0.25 mg/kg iv, time 0) was 392.4 ± 48.11 and the “rising of T wave (X ± S)” value ([1]; low dose 0.25 mg/kg iv, time 0) was 0.20 ± 0.040. The “cardioverter (X ± S)” value [1, 11] was 196.2 ± 52.90, the “rising of T wave (X ± S)” value [1, 11] was 0.23 ± 0.068 and the “cardioverter (X ± S)” value [1, 12] was 215.4 ± 45.47. For the same molecule, the “rising of T wave (X ± S)” value [1, 12] was 0.23 ± 0.051, the “cardioverter (X ± S)” value [1, 13] was 236.7 ± 47.92 and the “rising of T wave (X ± S)” value [1, 13] was 0.23 ± 0.047. The “cardioverter (X ± S)” value [1, 14] was 256.6 ± 51.26, the “rising of T wave (X ± S)” value [1, 14] was 0.24 ± 0.040 and the “cardioverter (X ± S)” value [1, 15] was 268.6 ± 53.15. For the same molecule, the “rising of T wave (X ± S)” value [1, 15] was 0.25 ± 0.048, the “cardioverter (X ± S)” value [1, 16] was 260.8 ± 93.87 and the “rising of T wave (X ± S)” value [1, 16] was 0.27 ± 0.044. For the same molecule, the “cardioverter (X ± S)” value [1, 17] was 297.6 ± 41.30, the “rising of T wave (X ± S)” value [1, 17] was 0.26 ± 0.040 and the “cardioverter (X ± S)” value [1, 18] was 331.1 ± 41.18. The “rising of T wave (X ± S)” value [1, 18] was 0.34 ± 0.119, the “cardioverter (X ± S)” value [1, 19] was 234.5 ± 85.06 and the “rising of T wave (X ± S)” value [1, 19] was 0.19 ± 0.116. The “cardioverter (X ± S)” value [1, 20] was 389.6 ± 46.56, the “rising of T wave (X ± S)” value [1, 20] was 0.21 ± 0.052 and the “inhibition of the rising of T wave by pituitrin-induced, in words” value ([1]; middle dose groups, 0.5 mg/kg, vs control group P<0.01) was “could inhibit”.
